From ChEMBL document CHEMBL1123759, “Nonequilibrium opioid antagonist activity of 6,14-dideoxynaltrexone derivatives” (1987)

How the values were obtained:
Assay type in all cases: functional
Cavia porcellus [1] = species on record: Cavia porcellus; test: Compound was evaluated for irreversible antagonist activity in Guinea pig ileum (GPI) agonist (ethylketazocine) IC50 after antagonist treatment (20 nM) divided by the agonist control IC50
Cavia porcellus [2] = species on record: Cavia porcellus; test: Compound was evaluated for irreversible antagonist activity in Guinea pig ileum (GPI) agonist (morphine) IC50 after antagonist treatment (20 nM) divided by the agonist control IC50
Mus musculus [3] = species on record: Mus musculus; test: Compound was evaluated for irreversible antagonist activity in Mouse vas deference(MVD) agonist (DADLE) IC50 after antagonist treatment (50 nM) divided by the agonist control IC50
Mus musculus [4] = species on record: Mus musculus; test: Compound was evaluated for agonist activity in Mouse vas deferens (MVD)
Cavia porcellus [5] = species on record: Cavia porcellus; test: Compound was evaluated for agonist activity in Guinea pig ileum (GPI)
Mus musculus [6] = species on record: Mus musculus; test: Compound was evaluated for irreversible antagonist activity in Mouse vas deference(MVD) agonist (morphine) IC50 after antagonist treatment (50 nM) divided by the agonist control IC50
Cavia porcellus [7] = species on record: Cavia porcellus; test: Compound was evaluated for irreversible antagonist activity in Guinea pig ileum (GPI) agonist (morphine) IC50 after antagonist treatment (200 nM) divided by the agonist control IC50 (Tissue was treated with 200 nM compound rather than 20 nM)
Cavia porcellus [8] = species on record: Cavia porcellus; test: Compound was evaluated for irreversible antagonist activity in Guinea pig ileum (GPI)agonist (ethylketazocine) IC50 after antagonist treatment (200 nM) divided by the agonist control IC50
Cavia porcellus [9] = species on record: Cavia porcellus; test: Compound was evaluated for agonist activity in Guinea pig ileum (GPI) partial agonist (potency ratio is based on IC10 value for compound and morphine)
Cavia porcellus [10] = species on record: Cavia porcellus; test: Compound was evaluated for irreversible antagonist activity in Guinea pig ileum (GPI) agonist (morphine) IC50 after antagonist treatment (200 nM) divided by the agonist control IC50

Structure (SMILES)	IC50 ratio (Cavia porcellus [1])	IC50 ratio (Cavia porcellus [2])	IC50 ratio (Mus musculus [3])	Potency ratio (Mus musculus [4])	Potency ratio (Cavia porcellus [5])	IC50 ratio (Mus musculus [6])	IC50 ratio (Cavia porcellus [7])	IC50 ratio (Cavia porcellus [8])	Potency ratio (Cavia porcellus [9])	IC50 ratio (Cavia porcellus [10])
O=C(CI)N[C@@H]1CCC2C3Cc4ccc(O)c5c4C2(CCN3CC2CC2)[C@H]1O5 (some centres undefined)	1.03	3.05	2.4	25.3	6.27	15.6	–	–	–	–
CN(CCCl)[C@@H]1CCC2C3Cc4ccc(O)c5c4C2(CCN3CC2CC2)[C@H]1O5 (some centres undefined)	6.25	125	46.77	380	154	51	–	–	–	–
COC(=O)/C=C/C(=O)N[C@@H]1CC[C@@]2(O)[C@H]3Cc4ccc(O)c5c4[C@@]2(CCN3CC2CC2)[C@H]1O5	1	6	1.8	4.4	5	3.9	–	–	–	–
Oc1ccc2c3c1O[C@H]1[C@H](N=C=S)CCC4C(C2)N(CC2CC2)CCC341 (some centres undefined)	1.58	4.8	1.96	4.5	–	11.5	70	2.29	3.1	–
COC(=O)/C=C/C(=O)N[C@@H]1CCC2C3Cc4ccc(O)c5c4C2(CCN3CC2CC2)[C@H]1O5 (some centres undefined)	1.33	1.58	2.29	18	17.62	4.12	–	0.5	–	2.77
